Experimental data taken from patent US20250134860A1, “NOVEL COMPOUND, AND COMPOSITION FOR PREVENTING, ALLEVIATING OR TREATING BACTERIAL INFLAMMATION AND INFLAMMASOME-MEDIATED DISEASES, COMPRISING SAME AS ACTIVE INGREDIENT” (Quorum Bio Co., Ltd., priority 2022, published 2025).

What was measured:
[1] = tested on: E. coli (KCTC 2571 (ATCC 8739)); test: Inhibitory effect on E. coli biofilm formation; type: cell-based, Escherichia coli; conditions: 0.006-4.8 μg/ml; 48 hours; compared with control (CT)
Description: The inhibitory effect of the compound of Example 1-2 on biofilm formation in E. coli (KCTC 2571 (ATCC 8739); available from the Korean Collection for Oral Microbiology (KCOM)) was confirmed.
Sterilized cover glass slips (round, 12 mm radius) were placed individually at a bottom of each well of a cell culture plate (24-well plate) using forceps, and the compound of Example 1-2 was diluted in the medium (LB medium) to be cultured with bacteria so that the final concentrations were 0.006 μg/ml, 0.06 μg/ml, 0.6 μg/ml, 1.2 μg/ml, 2.4 μg/ml, and 4.8 μg/ml.
The prepared culture medium was dispensed into a cell culture plate in which glass slips were placed, and the bacteria were inoculated to a concentration of 2×10^7 cells/ml. […]
The biofilm in which bacteria cultured for each group were formed on glass slips was stained with 1% crystal violet solution for 15 minutes, and then washed three times with PBS (phosphate buffered saline) solution, and decolorized with acetone-alcohol (20:80, vol/vol). After the decolorizing solution containing crystal violet was put in 200 μl increments in a 96-well microplate for each group, the absorbance (OD590nm) was measured using an absorbance microplate reader (Epoch2, Bio-Tek, USA), and the biofilm formation levels were compared.

[2] = tested on: human monocyte cell line (THP-1); test: Cytotoxicity in human monocyte cell line (CCK-8); type: cell-based; conditions: 0.002, 0.02, 0.2, 2 μM, 24 hours, at any concentration
Description: The human monocyte cell line (THP-1) was cultured in a 10% fetal bovine serum (Hyclone, Waltham, MA, USA), and a RPMI 1640 medium supplemented with 2.05 mM L-glutamate and antibiotics (100 units/ml penicillin, 100 μg/ml streptomycin), and then seeded in a 96 well microtiter plate at a concentration of 1×10^5 cells/well. The compound of Example 1-2 was diluted to a final concentration of 0.002 μM, 0.02 μM, 0.2 μM, and 2 μM, cells in each well were treated and cultured for 24 hours. Then, the cultured cells were treated with 10 μl of Cell Counting Kit-8 (CCK-8, DOJINDO, Kumamoto, Japan) solution in each well, and then the absorbance was measured at 450 nm for each time zone (1 h, 2 h, 3 h), and the results were derived based on the absorbance data from the last time zone, 3 h. At this time, the cell viability of untreated cells was set as 100% as the reference, and the cell viability of the cells treated with the sample was calculated and shown in FIG. 19.

Cc1ccc(C(=C2c3ccccc3C(=O)N2C)c2ccc(C)cc2)cc1 [Example 1-2, 3-(di-p-tolylmethylene)-2-methylisoindolin-1-one]
biofilm formation of E. coli [1]: significantly suppressed in a concentration-dependent manner
cytotoxicity (cell viability, CCK-8) [2]: did not exhibit cytotoxicity
